Data set [1] concerns the target T1, rat cerebellar nitric oxide synthase (NOS) (Rattus norvegicus, UniProt P29476).
T1 construct: from tissue
Description: inhibition of rat cerebellar nitric oxide synthase (NOS). Type of data set: biochemical. Here is the method:
Nitric oxide synthase (NOS) activity was determined in vitro by the method of Dwyer et al., Biochem. Biophys. Res. Commun. 1991, 176, 1136-1141. Mice (male, LACA, 28-32 g) were killed by cervical dislocation. Cerebella were removed, homogenized (1-10 w/v in 20 mM Tris buffer containing 2 mM EDTA, pH. 7.4) and aliquots (25 μl) incubated (37° C.) with L-arginine (120 nM) containing 0.5 μCi [^3 H]-arginine (specific activity 62 Ci mmol^-1), NADPH (0.5 mM) and CaCl2 (0.75 mM). […] Final incubation volume was 105 μl. After 15 minutes the reaction was stopped by addition of 3 ml HEPES buffer (20 mM containing 2 mM EDTA, pH 5.5) and the [^3 H]-citrulline produced was separated by cation exchange chromatography on 0.5 ml columns of Dowex AG50-W8 Na^+ form. [^3 H]-Citrulline was quantitated by liquid scintillation spectroscopy of duplicate 1 ml aliquots of the flow-through.

Data set [2] has as its system mice. Description: anti-nociceptive activity, formalin-induced hindpaw licking assay. It is filed as in vivo, mouse. Conditions: for Inhibition of licking (%): 50 mg kg^-1 i.p., late phase. On the procedure:
Control animals received 10 ml kg^-1 of arachis oil or saline (0.9% w/v NaCl).
The percentage inhibition of formalin-induced licking in the late phase following the administration of 50 mg kg^-1 i.p. of the indazoles is shown in the Table below.

Data set [3] is described as follows: blood pressure (MAP) of urethane-anaesthetized mice. It is filed as in vivo, mouse. Conditions: for mean arterial pressure (MAP): n=4.
Data set [4] concerns the target T2, mouse cerebellar NOS (Mus musculus, UniProt Q9Z0J4).
T2 construct: Cerebella were removed, homogenized; from tissue; host or cells: cerebellum of male LACA mice, crude homogenate
Description: mouse cerebellar NOS activity after i.p. administration (ex vivo). Type of data set: in vivo. Conditions: n=6, P<0.01. Here is the method: Nitric oxide synthase (NOS) activity was determined in vitro by the method of Dwyer et al., Biochem. Biophys. Res. Commun. […] Mice (male, LACA, 28-32 g) were killed by cervical dislocation. […] Final incubation volume was 105 μl. After 15 minutes the reaction was stopped by addition of 3 ml HEPES buffer (20 mM containing 2 mM EDTA, pH 5.5) and the [^3 H]-citrulline produced was separated by cation exchange chromatography on 0.5 ml columns of Dowex AG50-W8 Na^+ form. [^3 H]-Citrulline was quantitated by liquid scintillation spectroscopy of duplicate 1 ml aliquots of the flow-through.
Cerebella were removed, homogenized and NOS activity determined as described above.

The target of data set [5] is T2, mouse cerebellar NOS. Nature of the data set: inhibition of mouse cerebellar nitric oxide synthase (NOS) activity in vitro. Conditions: for IC50: mouse cerebella homogenate, 15 minutes, 37° C., mean ± s.e. mean, n=6. Type of data set: biochemical.
The subject of data set [6] is nitric oxide synthase. Conditions: Moore et al., British Journal of Pharmacology, 1991, 102, 198-202; cited from earlier work.
The mark [7] stands for this setting: rat cerebella, read-out: IC50 NOS.
Setting [8] is: ratio of IC50 on mouse cerebellar NOS in vitro.

Like-named read-outs stand apart in the source and are kept apart here.

T2 sequence (Q9Z0J4 whole entry): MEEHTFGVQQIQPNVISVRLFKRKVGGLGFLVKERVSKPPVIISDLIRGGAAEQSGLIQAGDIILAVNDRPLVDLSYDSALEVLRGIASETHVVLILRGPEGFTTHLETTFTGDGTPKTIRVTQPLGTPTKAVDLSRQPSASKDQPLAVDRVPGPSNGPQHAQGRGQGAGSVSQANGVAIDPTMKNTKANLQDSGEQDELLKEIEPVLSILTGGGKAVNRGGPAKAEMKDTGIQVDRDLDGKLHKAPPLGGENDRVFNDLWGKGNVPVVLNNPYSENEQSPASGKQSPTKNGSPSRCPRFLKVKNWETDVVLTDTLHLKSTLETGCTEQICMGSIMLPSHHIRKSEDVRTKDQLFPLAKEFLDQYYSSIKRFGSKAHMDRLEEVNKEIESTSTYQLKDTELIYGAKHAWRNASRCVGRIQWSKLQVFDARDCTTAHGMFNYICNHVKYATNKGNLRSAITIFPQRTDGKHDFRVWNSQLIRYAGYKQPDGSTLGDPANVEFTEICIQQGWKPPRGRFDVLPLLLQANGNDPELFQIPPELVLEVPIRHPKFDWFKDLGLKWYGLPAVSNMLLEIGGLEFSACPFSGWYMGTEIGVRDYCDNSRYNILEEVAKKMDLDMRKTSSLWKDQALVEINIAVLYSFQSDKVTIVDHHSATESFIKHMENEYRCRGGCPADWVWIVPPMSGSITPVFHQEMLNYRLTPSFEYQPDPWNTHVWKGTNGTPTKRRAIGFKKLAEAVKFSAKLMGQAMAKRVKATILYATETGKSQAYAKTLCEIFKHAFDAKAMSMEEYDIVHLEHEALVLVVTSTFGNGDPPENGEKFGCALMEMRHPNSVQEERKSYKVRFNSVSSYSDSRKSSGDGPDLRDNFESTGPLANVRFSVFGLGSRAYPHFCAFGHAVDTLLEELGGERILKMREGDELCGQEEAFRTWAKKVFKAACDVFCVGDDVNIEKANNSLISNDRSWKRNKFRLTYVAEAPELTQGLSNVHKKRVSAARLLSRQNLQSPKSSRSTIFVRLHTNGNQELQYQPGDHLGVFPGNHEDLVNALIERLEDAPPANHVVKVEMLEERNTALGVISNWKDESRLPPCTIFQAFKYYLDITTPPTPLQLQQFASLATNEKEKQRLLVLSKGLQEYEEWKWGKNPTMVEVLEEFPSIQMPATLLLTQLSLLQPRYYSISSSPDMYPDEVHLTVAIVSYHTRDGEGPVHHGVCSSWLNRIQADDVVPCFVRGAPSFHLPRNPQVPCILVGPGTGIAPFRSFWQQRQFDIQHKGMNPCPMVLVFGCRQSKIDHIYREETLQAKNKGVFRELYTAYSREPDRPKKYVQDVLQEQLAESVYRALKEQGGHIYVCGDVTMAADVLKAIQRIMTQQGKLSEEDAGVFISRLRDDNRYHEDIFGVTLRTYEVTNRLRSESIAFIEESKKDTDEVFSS

Consider `O=[N+]([O-])c1ccc2[nH]nc(Cl)c2c1` [3-chloro-5-nitroindazole], for which the IC50 in data set [1] (setting [7]) is 177 µM.
For the molecule `Clc1n[nH]c2ccccc12` [3-chloroindazole], the IC50 in data set [1] (setting [7]) is 100 µM.
The same measure, in the same setting: the same measure for `O=[N+]([O-])c1ccc2[nH]ncc2c1` [5-nitroindazole]: 56 µM.
Take `O=[N+]([O-])c1ccc2cn[nH]c2c1` [6-nitroindazole]: the IC50 in data set [1] (setting [7]) was found to be 32 µM. Moreover, the “Inhibition of licking (%)” value in data set [2] worked out at 67.0 ± 12.0%.
Regarding `O=[N+]([O-])c1cccc2cn[nH]c12` [7-nitroindazole], in data set [3] (25 mg kg^-1 i.p., cf 51.6±4.4 before administration), the “mean arterial pressure (MAP)” value came out at 47.4±5.1 mmHg. The “mean arterial pressure (MAP)” value in data set [3] (80 mg kg^-1 i.p., cf 49.5±2.9 before administration) was 43.9±5.3 mmHg. Moreover, in data set [3] (25 and 80 mg kg^-1 i.p., over 45 minutes), the “mean arterial pressure (MAP), change in words” value is reported as “did not increase mean arterial pressure”. Also, the “decrease of mouse cerebellar NOS activity” value in data set [4] (25 mg kg^-1, i.p., 15 minutes thereafter) is recorded as “over 55%”. For the same molecule, the “mouse cerebellar NOS activity” value in data set [4] (25 mg kg^-1, i.p., 15 minutes, cf 9.1±0.26 arachis oil-injected controls) is listed as 3.9±0.06 nmol citrulline mg^-1 protein 15 min^-1. Moreover, the “Inhibition of licking (%)” value in data set [2] turned out to be 100%. Further, the “early phase response of formalin-induced hindpaw licking (in words)” value in data set [2] (10, 25 and 50 mg kg^-1 i.p., early phase (0-5 minutes)) was “without influencing the early phase response”. Besides, the “inhibition of late phase formalin-induced hindpaw licking (in words)” value in data set [2] (10, 25 and 50 mg kg^-1 i.p., late phase (15-30 minutes)) is listed as “dose-related inhibition of late phase formalin-induced hindpaw licking”. Also, the “ED50 for the anti-nociceptive effect” value in data set [2] (i.p., mice) was 26 mg/kg. In addition, in data set [2] (i.p., mice, converted from 26 mg kg^-1), the “ED50 for the anti-nociceptive effect (equivalent)” value was 159.5 µmol/kg. In data set [5], this molecule yielded an IC50 of 0.47 ± 0.01 µM. In addition, in data set [5] (setting [8]), the “times more potent than L-NAME” value was determined as 1.8 times and the “times more potent than L-NMMA” value is given as 5 times.
As to `COC(=O)[C@@H](N)CCCNC(=N)N[N+](=O)[O-]` [L-NAME, L-N^G -nitroarginine methyl ester, reference compound], the “mouse cerebellar NOS activity” value in data set [4] (50 mg kg^-1, i.p., 15 minutes, cf 8.33±0.15 saline-injected controls) is 4.46±0.012 pmol citrulline mg^-1 protein 15 min^-1. The molecule also came in with an inhibition at 50 mg/kg in data set [4] (mouse, ip, 50 mg kg^-1, i.p., 15 minutes) of 46.2 ± 1.6%. Besides, in data set [5], 0.87 ± 0.02 µM corresponded to half-maximal inhibition (IC50). For the same molecule, the “block of nitric oxide synthase in brain and peripherally” value in data set [6] is listed as “blocks this enzyme not only in the brain but also peripherally”.
For the molecule `CNC(=N)NCCC[C@H](N)C(=O)O` [L-NMMA, L-N^G -monomethyl arginine, reference compound], 2.37 ± 0.03 µM corresponded to half-maximal inhibition in data set [5] (IC50).
In data set [1], `c1ccc2[nH]ncc2c1` [indazole] returned an IC50 of 232 µM. Also, the “Inhibition of licking (%)” value in data set [2] amounted to 83.2 ± 12.2%.

The record behind these values is patent publication US5459158A, “Pharmaceutical compositions of indazoles and methods of use thereof” (priority 1992, dated 1995).
